The values below come from patent US20060078502A1, “Charge neutral complexes of paramagnetic metals as intracellular magnetic resonance imaging contrast agents” (priority 2004, published 2006).

Data set [1] relates to human neutrophils. Put plainly: Kinetics of complex loading into cells. The class given is cell-based. The conditions noted are these: 37° C., neutrophils in donor plasma, 3.7 mg gadolinium. As to the method:
Kinetics of Complex Loading into Cells. For this study, human neutrophils were obtained from a single donor and suspended in 50 microliters of the same donor's plasma in a series of test tubes. The neutrophils were incubated at 37° C. with gadolinium pyrithione complex in a shaker bath. The amount of gadolinium pyrithione used for each test tube provided 3.7 mg of gadolinium, which was added to the test tube in 250 microliters of acetate buffer. After various incubation times, the neutrophil cells were centrifuged, washed with buffer and the amount of neutrophil-bound gadolinium was calculated.

A short description of data set [2]: Storage stability of the complex (solution formulation, lyophilized). The class given is physicochemical. Conditions: after one year of storage in the refrigerator; acetate-dextrose buffer, pH 6.4. As to the method:
The contrast agent of the invention can be packaged into kit form. Conveniently, the complexes are formed as described herein, sterilized, filled into sterile bottles and then freeze-dried (lyophilized). The lyophilized complex is stable when stored for at least one year at 4° C. The lyophilized complex is reconstituted in acetate buffer (about 0.2 M NaOAc, pH 6.0 to 6.4) to the desired concentration for injection for use.
Fifty microliters of the gadolinium chloride solution is mixed with 250-400 microliters of the pyrithione solution. A white precipitate of gadolinium pyrithione complex is formed, which is vortexed for good mixing. The gadolinium pyrithione complex is dissolved in 1250 microliters of 0.2 molar acetate-dextrose buffer. The final pH is adjusted to 6.4 with a pH electrode (Beckman-Coulter). The osmolarity of the solution is checked by the freezing point method to 275 mOsmole. The gadolinium pyrithione complex solution is sterilized by membrane filtration (0.22 micrometer filter) and stored in a refrigerator.
(§1) This formulation is found to be stable after one year of storage in the refrigerator. It is soluble in 0.2 molar acetate buffer, in a mixture of acetate buffer and saline or human plasma facilitating the storage of Gd-complex, its transport and control of reconstitution by adjustment of injectate volume, and its use in cell-tagging and administration of tagged cells.

A short description of data set [3]: Solubility of the complex. The class given is physicochemical. The conditions noted are these: 0.2 molar acetate buffer; mixture of acetate buffer and saline or human plasma.
Description: A paramagnetic metal atom has one or more unpaired […], providing a half-integral “spin” quantum number. For metal complex MRI contrast agents, the MRI relaxation efficiency per molecule depends on the nature of the metal in the chelate complex and the size of the metal chelate complex. These contrast agents serve as relaxation sinks for the protons of adjacent water molecules. The metal complex lattice receives the energy from the protons excited by radiofrequency (RF) pulses. […] This facilitates energy transfer, and provides increased imaging efficiency. The complexes of the present invention are soluble in lipids and provide relaxivities in the range 50-150 millimole^−1 second^−1. The gadolinium complexes of this invention, for instance, provide T1 relaxivity values of 80 per millimole per second and T2 values of 93 millimole^−1 second^−1. The complexes of the present invention are thus particularly useful as intra-cellular MRI contrast agents.
as §1

In data set [4] the test system is plasma lipoproteins (VLDL, LDL and HDL). Put plainly: Kinetics of gadolinium complex binding to plasma lipoproteins. Conditions: Gd-153 labeled, 60 minutes at room temperature, density gradient separation. The class given is in vitro ADME. The method, then: For this study, the galadolinium pyrithione complex labeled with Gd-153 was incubated directly with isolated lipoprotein particles in acetate-citrate buffer or was incubated with intact plasma for 60 minutes at room temperature. Very low, low and high-density lipoproteins (VLDL, LDL and HDL) were separated by cesium chloride density gradients (1.06 and 1.25 g/ml) in an ultracentrifuge (Beckman L8-55) in a swinging bucket rotor using standard protocols. The mixture in 4.5 ml in polyallomer tubes was spun at 210,000 g for 20 hours. The plasma proteins in the […], and layers representing each of VLDL, LDL and HDL were removed from the top of the tube by suction. The amount of gadolinium pyrithione bound to VLDL, LDL, HDL and plasma proteins was measured by counting the radioactivity in each fraction with the gamma well counter. The majority of gadolinium complexes were bound to lipoproteins. Accordingly, the gadolinium-tagged lipoprotein particles are useful to localize the sites of vulnerable plaques in patients, thus identifying the rupture-prone vulnerable plaques in the coronary or carotid arteries with MRI.

In data set [5] the test system is C3H mouse. Description: MRI processing and imaging of a mouse after intravenous administration. The class given is in vivo. From the text:
A Bruker 7.0 Tesla MRI System (BioSpin MRI Gmbh, Avance) operated at 300 MHz was used in this study. The system parameters are optimized for high resolution imaging with either T1-weighted (Gd-complexes) or T2-weighted agents (Fe-complexes). The mouse was placed on a stereotactic holder with a prone position. The holder stayed in the center of the 32 mm bore of the transmitter-receiver RF coil. The tail-vein was cannulated with a 27-29 G needle for delivery of contrast agents via slow infusion. 0.2 ml of 6 μM of the gadolium pyrithione complex was administered per dose. Two doses were administered 27 minutes apart. After acquisition of scout images, T1-weighted data were acquired with a spoiled gradient echo sequence, T1=100 to 700 ms, for example, 200 ms, TR (repetition time)=10 to 500 ms, for example, 13 ms, TE (echo time)=5 to 10 ms, for example, 6 ms, and flip angle=60-90 degree. Data were acquired before and after injection of contrast media to evaluate the reduction of tissue T1-values from 500-700 ms to 100-200 ms with the Gd-complexes or Gd-tagged cells.
FIG. 1 presents a T1-weighted MR image (coronal slice, 1 mm thickness) of the C3H mouse at 3 minutes after the second intravenous administration of Gd-(tris)pyrithione complex, providing an image at 3 and 30 minutes post administration. […] The conclusion that the complex is stable is reached because, unstable Gd-complexes hydrolyze and Gd-colloids form and localize in the macrophage pool of reticuloendothelial system of liver, spleen and bone marrow.

In the case of `[Gd+3].[O-][n+]1ccccc1[S-].[O-][n+]1ccccc1[S-].[O-][n+]1ccccc1[S-]` [gadolinium pyrithione complex, gadolinium (tris)pyrithione], the “Gadolinium (% in cells)” value is 99.21% in data set [1] (incubation time 05 minutes), 99.75% in data set [1] (incubation time 10 minutes), 99.36% in data set [1] (incubation time 30 minutes) and 99.11% in data set [1] (incubation time 45 minutes). The “stability of formulation on storage” value in data set [2] is “stable”. For the same compound, the solubility result in data set [3] was “soluble”. In addition, the “fraction of complex bound to lipoproteins” value in data set [4] is “majority”. Besides, the “imaging of liver, spleen and bone marrow (reticuloendothelial system)” value in data set [5] (3 and 30 minutes post administration) is given as “None of these tissues were imaged”. Moreover, the “in vivo stability of the agent” value in data set [5] (C3H mouse, intravenous, two doses 27 minutes apart, T1-weighted MRI) was “stable”. In addition, the “localization in late phase” value in data set [5] (thirty minutes after the first administration) was “bladder”. In data set [5] (three minutes after the second administration), the “localization in early phase post-IV injection” value was “heart”.
